Assay results taken from patent publication US20210255168A1, “A METHOD OF PRECISION CANCER THERAPY” (KING FAISAL SPECIALIST HOSPITAL & RESEARCH CENTRE, priority 2018, published 2021).

Columns and labels:
Type in all cases: cell-based
[1] = test system: TNF-α-ARE luciferase reporter in MDA-MB-231 cells; test: Post-transcriptional ARE luciferase reporter assay (kinase inhibitor library screen); conditions: 0.5, 2 and 5 μM, ARE and non-ARE reporters
[2] = test system: TTP mRNA in MDA-MB-231 cells; test: qPCR for TTP mRNA expression; conditions: MDA-MB-231, 24 h, vs DMSO
Experimental: Cells were cultured in six-well plates and either treated with DMSO or drugs for 24 h. Total RNA was then extracted using Trizol reagent (TRI Reagent, Sigma-Aldrich, St Louis, Mo.). The cells were lysed directly on the culture dish by adding 1 ml of the TRI Reagent per 10 cm^2 surface area. Reverse transcription for preparation of cDNA was performed using 3 μg of total RNA, 150 ng random primers, 0.1 M dithiothreitol (DTT), 10 mM deoxynucleotide triphosphate (dNTP) and 200 U of SuperScript II (Invitrogen, Foster City, Calif.). The quantitative RT-QPCR was performed in multiplex in the Chroma 4 DNA Engine cycler (BioRad, Hercules, Calif., USA) using FAM-labelled TaqMan probes (Applied Biosystems, Foster City, Calif., USA) for TTP (ZFP36), HuR (ELAVL1), uPA (PLAU)-CXCR4, MMP-1, MMP-13, IL-8, PLK-1 while a VIC-labelled glyceraldehyde-3-phosphate dehydrogenase (GAPDH) probe was used as the endogenous control. Samples were amplified in triplicate and quantification of relative expression was performed using the estimation of quantitation cycle (Cq) method.
To study the influence of PLK-1 inhibition on ARE-containing mRNA stability, the effect of volasertib treatment on the half-life of uPA was analyzed. Half-life of uPA mRNA was reduced from >6 hr to 0.5 hr in response to volasertib treatment compared to the DMSO control (FIG. 12C). […]

PD-1L = PD-1L expression; conditions: FIG. 18
Experimental: FIG. 18: Volasertib reduces PD-1L expression.
These include IL-8, solute carrier family 2 member 1 (SLC2A1), uPA, uPAR, CXCR4, MMP13, PDL1, and HuR. The MDA-MB-231 cells were treated with 330 nM volasertib or DMSO for 24 hr, then quantitative RT-qPCR was performed in using FAM-labelled TaqMan probe of the above genes and normalized to GADPH (FIG. 11).

MDA-MB-231 cells = test: Migration assay (RTCA, without Matrigel); conditions: MDA-MB-231, thirty hours after treatment
Experimental: MDA-MB-231 cells were seeded in 6-well cell culture plates and incubated overnight. The cells were treated with the selected protein kinase inhibitors and incubated overnight. Then they were reseeded onto the invasion chamber in serum-free media at a density of 2×10^4 cells per well using 16-well CIM-Plate in Real-Time Cell Analysis (RTCA) Dual Plate (DP) Analyzer (ACEA Bioscinece, California, USA) that was loaded inside the incubator. The lower chambers to which cells will migrate were prepared to contain chemoattractant consisted of 10% FBS. For invasion assays, Matrigel (BioCoat, BD Biosciences, MA) which resembles the complex extracellular environment found in many tissues was prepared and used to coat the upper chamber of CIM plates. Invasion and migration were monitored continuously over 72-hour period using RTCA Software (ACEA Bioscinece, California, USA). The RTCA Instrument automatically monitors the cells every 15 minutes for 100 repetitions. For proliferation assays, the same principle was applied using a single chamber containing complete DMEM media (FIG. 10).
Based on the dose-response curve, 330 nM was selected to be used as a standard dose for the experiments. In the invasion assay, MDA-MB-231 cells were treated with volasertib or DMSO for 24 hr, then invasion was monitored for 30 hr.

[3] = test system: uPA mRNA in MDA-MB-231 cells; test: mRNA half-life (Actinomycin D, one-phase exponential decay); conditions: MDA-MB-231, Actinomycin D 5 μg/ml; DMSO control >6 hr
Experimental: For half-life experiments, 5 μg/ml of Actinomycin D (ActD; Sigma-Aldrich, St Louis, Mo.) was added to the cells for 1, 2, 4 and 6 h prior to extraction of total RNA using Trizol. The reverse transcription reaction and quantitative PCR were performed as described above. The half-life of mRNAs was estimated using the one-phase exponential decay method using GraphPad Prism software (GraphPad Software, San Diego, Calif.).
To study the influence of PLK-1 inhibition on ARE-containing mRNA stability, the effect of volasertib treatment on the half-life of uPA was analyzed. Half-life of uPA mRNA was reduced from >6 hr to 0.5 hr in response to volasertib treatment compared to the DMSO control (FIG. 12C). […] Compatible with the findings of the inventors, the higher the level of PLK-1, the lower the TTP expression.

`CC[C@@H]1C(=O)N(C)c2cnc(Nc3ccc(C(=O)N[C@H]4CC[C@H](N5CCN(CC6CC6)CC5)CC4)cc3OC)nc2N1C(C)C` [volasertib] was tested, and the “ARE-dependent mRNA regulation confirmed in later stages of screening compared to a non-ARE reporter” value [1] was “confirmed to be involved in ARE-dependent mRNA regulation”, the “enhancement of TTP mRNA expression” value [2] was 40% and the PD-1L expression (PD-1L) was “reduces”. For the same compound, the cell migration (MDA-MB-231 cells) was “reduce breast cancer cells migration” and the “half-life of uPA mRNA” value [3] was 30 min.
